Common to all, as to assay type: in vivo
Assay [1] concerns Lolium perenne (LOLPE). Description: Post-emergence herbicidal activity, glasshouse pot test. The note with it: Lolium perenne, 312 h, rate 250 g/ha, evaluated after 13 days, glasshouse, read-out: Post-emergence activity LOLPE (100=total damage to plant; 0=no damage to plant). The essentials:
(§1)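 Potted plants sprayed one day after sowing (pre-emergence) or after 8 days (post-emergence) with formulation in acetone/water (50:50) containing 0.5% Tween 20. Glasshouse at 24/16 °C, 14 h light, 65% humidity; damage scored after 13 days (0 none, 100 total).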

Assay [2] has as its system Alopecurus myosuroides (ALOMY). The description is as above. The note with it: Alopecurus myosuroides, 312 h, rate 250 g/ha, evaluated after 13 days, glasshouse, read-out: Post-emergence activity ALOMY (100=total damage to plant; 0=no damage to plant). An outline of the steps: as §1
In assay [3] the test system is Echinochloa crus-galli (ECHCG). The description is as above. The note with it: Echinochloa crus-galli, 312 h, rate 250 g/ha, evaluated after 13 days, glasshouse, read-out: Post-emergence activity ECHCG (100=total damage to plant; 0=no damage to plant). The essentials:
as §1

The subject of assay [4] is Avena fatua (AVEFA). The assay is described as above. The note with it: Avena fatua, 312 h, rate 250 g/ha, evaluated after 13 days, glasshouse, read-out: Post-emergence activity AVEFA (100=total damage to plant; 0=no damage to plant). An outline of the steps:
as §1

The test system of assay [5] is Lolium perenne (LOLPE). Description: Pre-emergence herbicidal activity, glasshouse pot test. The note with it: Lolium perenne, 312 h; Rate 250 g/ha; pre-emergence spray; evaluated after 13 days; read-out: Pre-emergence activity LOLPE (100=total damage to plant; 0=no damage to plant). An outline of the steps:
as §1

Assay [6] concerns Alopecurus myosuroides (ALOMY). Described as above. The note with it: Alopecurus myosuroides, 312 h; Rate 250 g/ha; pre-emergence spray; evaluated after 13 days; read-out: Pre-emergence activity ALOMY (100=total damage to plant; 0=no damage to plant). The essentials:
as §1

Assay [7] relates to Echinochloa crus-galli (ECHCG). The description is as above. The note with it: Echinochloa crus-galli, 312 h; Rate 250 g/ha; pre-emergence spray; evaluated after 13 days; read-out: Pre-emergence activity ECHCG (100=total damage to plant; 0=no damage to plant). The essentials:
as §1

Assay [8] relates to Avena fatua (AVEFA). The assay is described as above. The note with it: Avena fatua, 312 h; Rate 250 g/ha; pre-emergence spray; evaluated after 13 days; read-out: Pre-emergence activity AVEFA (100=total damage to plant; 0=no damage to plant). The essentials:
as §1

As for `CCc1ccc(Oc2ccc(F)cc2F)cc1C1=C(O)CC(C)(C)CC1=O` [Example A-47], the pest or weed control at 250 g/ha with Lolium perenne (LOLPE) [1] was found to be 30%; in assay [2], 30%; in assay [3], 80%; with Avena fatua (AVEFA) [4], 10%; with Lolium perenne (LOLPE) [5], 40%; in assay [6], 50%. The pest or weed control at 250 g/ha stood at 90% in assay [7] and 0% in the assay on Avena fatua (AVEFA) [8].
For `CCc1ccc(Oc2ccc(Br)cc2)cc1C1=C(O)CC(C)(C)CC1=O` [Example A-48], the pest or weed control at 250 g/ha in the assay on Lolium perenne (LOLPE) [1] was found to be 70%; in assay [2], 80%; in assay [3], 100%; in the assay on Avena fatua (AVEFA) [4], 40%; with Lolium perenne (LOLPE) [5], 70%; in assay [6], 100%. Moreover, the pest or weed control at 250 g/ha in assay [7] came to 100%; in the assay on Avena fatua (AVEFA) [8] it was 30%.
Take `CCc1ccc(Oc2ccc(Br)cc2F)cc1C1=C(O)CC(C)(C)CC1=O` [Example A-49]: the pest or weed control at 250 g/ha with Lolium perenne (LOLPE) [1] is 90%; in assay [2], 90%; in assay [3], 100%; in the assay with Avena fatua (AVEFA) [4], 70%; in the assay on Lolium perenne (LOLPE) [5], 100%; in assay [6], 90%. The pest or weed control at 250 g/ha in assay [7] is 100%; with Avena fatua (AVEFA) [8], 40%.
`CCc1ccc(Oc2ccc(Cl)cc2)cc1C1=C(O)C(C)(C)CCC1=O` [Example A-50]: the pest or weed control at 250 g/ha worked out at 60% in the assay with Lolium perenne (LOLPE) [1]; 0% in assay [2]; 50% in assay [3]; 0% in the assay on Avena fatua (AVEFA) [4]; 70% with Lolium perenne (LOLPE) [5]; 0% in assay [6]. Further, the pest or weed control at 250 g/ha in assay [7] came to 100%; in the assay on Avena fatua (AVEFA) [8] it was 0%.
Turning to `CCc1ccc(Oc2ccc(Cl)c(F)c2)cc1C1=C(O)C(C)(C)CCC1=O` [Example A-52], the pest or weed control at 250 g/ha in the assay on Lolium perenne (LOLPE) [1] is 50%; in assay [2], 30%; in assay [3], 90%; in the assay on Avena fatua (AVEFA) [4], 40%; with Lolium perenne (LOLPE) [5], 70%; in assay [6], 40%. The results for the pest or weed control at 250 g/ha (in assay [7]; in the assay on Avena fatua (AVEFA) [8]) were 60% and 20%, respectively.
As for `CCc1ccc(Oc2cccc(C(F)(F)F)n2)cc1C1=C(O)C(C)(C)OC(C)(C)C1=O` [Example A-53], the pest or weed control at 250 g/ha in the assay with Lolium perenne (LOLPE) [1] is 30%; in assay [2] it was 0%; in assay [3], 80%; with Avena fatua (AVEFA) [4], 0%; with Lolium perenne (LOLPE) [5], 40%; in assay [6], 0%. Moreover, the pest or weed control at 250 g/ha in assay [7] worked out at 20%; in the assay on Avena fatua (AVEFA) [8] it was 0%.
As for `CCc1ccc(Oc2ncc(Cl)cc2F)cc1C1=C(O)C(C)(C)OC(C)(C)C1=O` [Example A-54], the pest or weed control at 250 g/ha (in the assay on Lolium perenne (LOLPE) [1]; in assay [2]; in assay [3]; in the assay with Avena fatua (AVEFA) [4]; with Lolium perenne (LOLPE) [5]; in assay [6]) was 100% in each case. The pest or weed control at 250 g/ha in assay [7] came to 100%; in the assay on Avena fatua (AVEFA) [8] it was 90%.
As for `CCc1ccc(Oc2cnc3cc(Cl)ccc3n2)cc1C1=C(O)C(C)(C)OC(C)(C)C1=O` [Example A-55], the pest or weed control at 250 g/ha was 100% in the assay on Lolium perenne (LOLPE) [1]; 100% in assay [2]; 100% in assay [3]; 100% in the assay with Avena fatua (AVEFA) [4]; 100% in the assay with Lolium perenne (LOLPE) [5]; 80% in assay [6]. Moreover, the pest or weed control at 250 g/ha in assay [7] amounted to 100%; in the assay on Avena fatua (AVEFA) [8], 90%.
`CCc1ccc(Oc2ccc3ccccc3c2)cc1C1=C(O)C(C)(C)OC(C)(C)C1=O` [Example A-56]: the pest or weed control at 250 g/ha was 100% with Lolium perenne (LOLPE) [1]; 100% in assay [2]; 100% in assay [3]; 0% in the assay on Avena fatua (AVEFA) [4]; 100% in the assay with Lolium perenne (LOLPE) [5]; 80% in assay [6]. Besides, the pest or weed control at 250 g/ha is 80% in assay [7] and 30% with Avena fatua (AVEFA) [8].
Consider `CCc1ccc(Oc2cccc(F)c2)cc1C1=C(O)C(C)(C)OC(C)(C)C1=O` [Example A-58], for which the pest or weed control at 250 g/ha in the assay on Lolium perenne (LOLPE) [1] was 0%; in assay [2], 0%; in assay [3], 80%; in the assay with Avena fatua (AVEFA) [4], 0%; with Lolium perenne (LOLPE) [5], 0%; in assay [6], 0%. The pest or weed control at 250 g/ha was 70% in assay [7] and 0% with Avena fatua (AVEFA) [8].
Regarding `CCc1ccc(Oc2nc(F)c(F)c(C)c2F)cc1C1=C(O)C(C)(C)OC(C)(C)C1=O` [Example A-59], the pest or weed control at 250 g/ha turned out to be 70% with Lolium perenne (LOLPE) [1]; 80% in assay [2]; 100% in assay [3]; 70% in the assay on Avena fatua (AVEFA) [4]; 100% in the assay with Lolium perenne (LOLPE) [5]; 80% in assay [6]. Besides, the pest or weed control at 250 g/ha in assay [7] was determined as 100%; with Avena fatua (AVEFA) [8] it was 70%.
In the case of `CCc1ccc(Oc2nc(F)c(Cl)c(Cl)c2Cl)cc1C1=C(O)C(C)(C)OC(C)(C)C1=O` [Example A-60], the pest or weed control at 250 g/ha in the assay on Lolium perenne (LOLPE) [1] worked out at 0%; in assay [2], 0%; in assay [3], 0%; in the assay on Avena fatua (AVEFA) [4], 0%; with Lolium perenne (LOLPE) [5] it was 40%; in assay [6], 0%. Further, the pest or weed control at 250 g/ha amounted to 50% in assay [7] and 0% with Avena fatua (AVEFA) [8].
Regarding `CCc1ccc(Oc2ncc(C(F)(F)F)cc2F)cc1C1=C(O)C(C)(C)OC(C)(C)C1=O` [Example A-62], the pest or weed control at 250 g/ha (in the assay on Lolium perenne (LOLPE) [1]; in assay [2]; in assay [3]; with Avena fatua (AVEFA) [4]; in the assay with Lolium perenne (LOLPE) [5]; in assay [6]) was 100% each time. For the same compound, the pest or weed control at 250 g/ha (in assay [7]; in the assay on Avena fatua (AVEFA) [8]) was 100% throughout.
As for `CCc1ccc(Oc2cc(C)ccn2)cc1C1=C(O)C(C)(C)OC(C)(C)C1=O` [Example A-64], the pest or weed control at 250 g/ha in the assay with Lolium perenne (LOLPE) [1] was 40%; in assay [2] it was 40%; in assay [3], 30%; with Avena fatua (AVEFA) [4], 0%; in the assay on Lolium perenne (LOLPE) [5], 80%; in assay [6] it was 60%. In addition, the figures for the pest or weed control at 250 g/ha (in assay [7]; in the assay on Avena fatua (AVEFA) [8]) were 20% and 0%, respectively.

Source of the values: patent US8865623B2, “Herbicidally active cyclic diones and derivatives thereof, processes for their preparation, compositions, and method of controlling weeds” (Syngenta Limited, priority 2009, dated 2014).
